In patent US11725036B2, “Modified lipidated relaxin B chain peptides and their therapeutic use” (Sanofi, priority 2018, dated 2023) one finds Emax and EC50 data, which are given here for three molecules.

The assay addresses T1, RXFP1 (Homo sapiens, UniProt Q9HBX9).
T1 construct: OVCAR5 cells expressing endogenous RXFP1; endogenous in cells; host or cells: OVCAR5
T1 sequence (Q9HBX9 1-757): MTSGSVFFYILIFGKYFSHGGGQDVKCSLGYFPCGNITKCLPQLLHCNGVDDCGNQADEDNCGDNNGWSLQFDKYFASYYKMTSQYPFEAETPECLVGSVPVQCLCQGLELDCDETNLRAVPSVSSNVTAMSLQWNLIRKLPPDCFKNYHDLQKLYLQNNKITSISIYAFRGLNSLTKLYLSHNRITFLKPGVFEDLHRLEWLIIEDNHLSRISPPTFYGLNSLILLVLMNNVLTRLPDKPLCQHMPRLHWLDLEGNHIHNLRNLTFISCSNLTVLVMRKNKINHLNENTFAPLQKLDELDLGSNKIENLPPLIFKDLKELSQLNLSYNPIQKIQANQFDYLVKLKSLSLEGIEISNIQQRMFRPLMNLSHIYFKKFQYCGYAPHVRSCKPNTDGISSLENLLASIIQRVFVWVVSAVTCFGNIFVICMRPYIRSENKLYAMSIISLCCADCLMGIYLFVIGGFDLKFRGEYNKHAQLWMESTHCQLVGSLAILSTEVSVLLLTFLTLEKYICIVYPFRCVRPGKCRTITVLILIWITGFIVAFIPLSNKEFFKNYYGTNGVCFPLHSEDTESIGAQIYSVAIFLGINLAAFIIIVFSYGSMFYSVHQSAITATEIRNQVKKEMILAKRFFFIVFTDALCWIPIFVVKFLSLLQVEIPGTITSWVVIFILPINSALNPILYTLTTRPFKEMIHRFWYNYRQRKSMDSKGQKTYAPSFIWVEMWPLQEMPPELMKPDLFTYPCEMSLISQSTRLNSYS
As to the kind of experiment: OVCAR5 cAMP assay (HTRF). The format is cell-based. The settings on record: for Emax: OVCAR 5 cells, maximal cAMP relative to H2-relaxin; for EC50: OVCAR 5 cells expressing endogenous RXFP1, cAMP readout. An outline of the steps:
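Peptide agonism measured as intracellular cAMP (HTRF) after 30 min at 37° C in serum-free medium, following 40 min 1 mM IBMX preincubation of OVCAR5 cells. Nonlinear regression gave EC50; Emax % = 100 × compound maximal cAMP / H2-relaxin maximal cAMP.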

Starred links: 1 amine or outer side, 2 acyl side, 3 side chain; linkers in the order of their positions; H or OH if unused. Non-standard residues stand in square brackets, D forms with d. Residues, ends and D or L forms follow the SMILES beside them. Groups on a side chain read outwards from the residue. *: point of attachment. X16 = CCCCCCCCCCCCCCCCCC(=O)N[C@@H](CCC(=O)N[C@@H](CCC(=O)N[C@@H](CCC(=O)NCCCOCCOCCOCCCNC(=O)CCC(=O)NCCCOCCOCCOCCCNC(=O)CCC(=O)NCCCOCCOCCOCCCNC(=O)CCC(=O)NCCCOCCOCCOCCCN*)C(=O)O)C(=O)O)C(=O)O; X8 = CCCCCCCCCCCCCCCC(=O)N[C@@H](CCC(=O)N[C@@H](CCC(=O)N[C@@H](CCC(=O)N[C@@H](CCC(=O)NCCCOCCOCCOCCCNC(=O)CCC(=O)NCCCOCCOCCOCCCN*)C(=O)O)C(=O)O)C(=O)O)C(=O)O; γGlu = O=C(O)[C@H](CCC(=O)[*:2])N[*:1]; Palmitoyl = CCCCCCCCCCCCCCCC(=O)*; Suc = O=C(CCC(=O)[*:2])[*:1]; αMeK = C[C@](N)(CCCCN)C(=O)O; AEEA = NCCOCCOCC(=O)O; Aib = CC(C)(N)C(=O)O

`CCCCCCCCCCCCCCCCCC(=O)N[C@@H](CCC(=O)N[C@@H](CCC(=O)N[C@@H](CCC(=O)NCCCOCCOCCOCCCNC(=O)CCC(=O)NCCCOCCOCCOCCCNC(=O)CCC(=O)NCCCOCCOCCOCCCNC(=O)CCC(=O)NCCCOCCOCCOCCCNC(=O)CCC(=O)NCCCC[C@H](NC(=O)CNC(=O)[C@H](CCC(=O)O)NC(=O)C(C)(C)NC(=O)C(C)(C)NC(=O)[C@@H](NC(=O)[C@H](CCCCNC(C)=O)NC(=O)[C@H](C)NC(=O)[C@H](CCCNC(=N)N)NC(=O)[C@@H](NC(=O)[C@H](CCCCN)NC(=O)[C@H](CCC(=O)O)NC(=O)[C@H](CCCNC(=N)N)NC(=O)CNC(=O)[C@H](CCC(=O)O)NC(=O)[C@H](CC(C)C)NC(C)=O)C(C)C)[C@@H](C)CC)C(=O)N[C@@H](CO)C(=O)N[C@H](C(=O)N[C@@H](Cc1c[nH]c2ccccc12)C(=O)N[C@@H](CO)C(=O)NC(C)(C)C(=O)N[C@@H](CCCNC(=N)N)C(=O)N[C@@H](CCCCN)C(=O)N[C@@H](CCCCNC(C)=O)C(N)=O)[C@@H](C)O)C(=O)O)C(=O)O)C(=O)O` [compound 58] (Ac-LEGREKVRAK(Ac)I[Aib][Aib]EGK([Suc-X16])STWS[Aib]RKK(Ac)-NH2) returned an Emax of 98%. As for `CCCCCCCCCCCCCCCC(=O)N[C@@H](CCC(=O)N[C@@H](CCC(=O)N[C@@H](CCC(=O)N[C@@H](CCC(=O)NCCCOCCOCCOCCCNC(=O)CCC(=O)NCCCOCCOCCOCCCNC(=O)CCC(=O)NCCCC[C@H](NC(=O)CNC(=O)[C@H](CCC(=O)O)NC(=O)C(C)(C)NC(=O)C(C)(C)NC(=O)[C@@H](NC(=O)[C@H](CCCCNC(C)=O)NC(=O)[C@H](C)NC(=O)[C@H](CCCNC(=N)N)NC(=O)[C@@H](NC(=O)[C@H](CCCCN)NC(=O)[C@H](CCC(=O)O)NC(=O)[C@H](CCCNC(=N)N)NC(=O)CNC(=O)[C@H](CCC(=O)O)NC(=O)[C@H](CC(C)C)NC(C)=O)C(C)C)[C@@H](C)CC)C(=O)N[C@@H](CO)C(=O)N[C@H](C(=O)N[C@@H](Cc1ccccc1)C(=O)N[C@@H](CO)C(=O)N[C@@](C)(CCCCN)C(=O)N[C@@H](CCCNC(=N)N)C(=O)N[C@@H](C)C(=O)N[C@@H](CCCCNC(C)=O)C(N)=O)[C@@H](C)O)C(=O)O)C(=O)O)C(=O)O)C(=O)O` [compound 10] (Ac-LEGREKVRAK(Ac)I[Aib][Aib]EGK([Suc-X8])STFS[αMeK]RAK(Ac)-NH2), the EC50 stood at 0.79 nM and the maximum response (Emax) worked out at 95%.

Consider `CCCCCCCCCCCCCCCC(=O)N[C@@H](CCC(=O)N[C@@H](CCC(=O)N[C@@H](CCC(=O)NCCOCCOCC(=O)NCCOCCOCC(=O)NCCOCCOCC(=O)NCCCC[C@H](NC(=O)CNC(=O)[C@H](CCC(=O)O)NC(=O)C(C)(C)NC(=O)C(C)(C)NC(=O)[C@@H](NC(=O)[C@H](CCCCNC(C)=O)NC(=O)[C@H](C)NC(=O)[C@H](CCCNC(=N)N)NC(=O)[C@@H](NC(=O)[C@H](CCCCN)NC(=O)[C@H](CCC(=O)O)NC(=O)[C@H](CCCNC(=N)N)NC(=O)CNC(=O)[C@H](CCC(=O)O)NC(=O)[C@H](CC(C)C)NC(C)=O)C(C)C)[C@@H](C)CC)C(=O)N[C@@H](CO)C(=O)N[C@H](C(=O)N[C@@H](Cc1c[nH]c2ccccc12)C(=O)N[C@@H](CO)C(=O)NC(C)(C)C(=O)N[C@@H](CCCNC(=N)N)C(=O)N[C@@H](CCCCN)C(=O)N[C@@H](CCCCNC(C)=O)C(N)=O)[C@@H](C)O)C(=O)O)C(=O)O)C(=O)O` [compound 19] (Ac-LEGREKVRAK(Ac)I[Aib][Aib]EGK([AEEA-AEEA-AEEA-γGlu-γGlu-γGlu-Palmitoyl])STWS[Aib]RKK(Ac)-NH2), for which a half-maximal response (EC50) required 11.5 nM and the Emax turned out to be 94%.
